Assay results from PubChem BioAssay AID588634 (Broad Institute, 2011).
The source made the active and inactive calls.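 The calls were made as follows: active = compounds whose fitted half-maximal toxic concentration is no more than twice their top tested dose; inconclusive = flat fit with 30 to 70% signal loss, or poor fit; inactive = the rest.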

Tests used:
[1] = tested on: NIH-3T3 fibroblast viability, Alamar Blue fluorescence, 48 h; experiment: cytotoxicity in NIH-3T3 fibroblasts, dose response, cytotoxicity control for antifungal single agent project, cell-based, Alamar Blue, cherry-pick (AID 588634)
[2] = as above; conditions: NIH-3T3 fibroblast viability, Alamar Blue fluorescence, 48 h; at 26 µM (top of the series)

| Structure (SMILES) | AC50 [1] | activity change, negative = toxicity [2] |
| --- | --- | --- |
| Oc1c(CN2CCN(c3ccc(F)cc3)CC2)cc(Cl)c2cccnc12 | 1.29 µM |  |
| C(C#CCCCCCCCCC[n+]1ccccc1)#CCCCCCCCCC[n+]1ccccc1 |  | -33.3% (inactive) |
| CCN1/C(=C/C=C/c2oc3ccc(-c4ccccc4)cc3[n+]2CC)Oc2ccc(-c3ccccc3)cc21 |  | 360% (inactive) |
| Oc1c(C(Nc2nccs2)c2ccc(C(F)(F)F)cc2)ccc2cccnc12 (stereo not drawn) | 1.74 µM |  |
| O=Nc1c(-c2cccc([N+](=O)[O-])c2)nc2ncccn12 | 9.99 µM |  |
| COc1cccc(N=Nc2ccc3cccnc3c2O)c1 | 0.712 µM |  |
| O=C(Oc1c(Cl)cc(Cl)c2cccnc12)c1cccs1 | 0.659 µM |  |
| CCOC(=O)N1C(=O)C2(CCCCC2)N(c2ccc(C)cc2)C1=S |  | -0.005% (inactive) |
| CCOc1ccc(N=Nc2ccc(O)c3ncccc23)cc1 | 0.289 µM |  |
| Oc1ccc(N=Nc2ccc3c(c2)OCCO3)c2ncccc12 | 0.702 µM |  |
| Cc1ccc(C(=O)c2coc3c2C(=O)C(=O)c2ccccc2-3)cc1 | 8.17 µM |  |
| O=Cc1ccc(O)c2ncccc12 | 0.913 µM |  |
| O=C(Oc1c(Cl)cc(Cl)c2cccnc12)c1ccco1 | 0.409 µM |  |
| Oc1c(C(Nc2nc3ccccc3s2)c2ccco2)ccc2cccnc12 (stereo not drawn) | 1.85 µM |  |
| CCCCC(=O)NC(c1ccc(Cl)cc1)c1ccc2cccnc2c1O (stereo not drawn) | 1.09 µM |  |
| CCCCC(=O)NC(c1ccc(N(CC)CC)cc1)c1ccc2cccnc2c1O (stereo not drawn) | 1.25 µM |  |
| CN1CCN(C(c2ccc(C(F)(F)F)cc2)c2ccc3cccnc3c2O)CC1 (stereo not drawn) | 0.852 µM |  |

| Structure (SMILES) | AC50 [1] | activity change, negative = toxicity [2] |
| --- | --- | --- |
| CN1CCN(C(c2ccc(C(F)(F)F)cc2)c2cc(Cl)c3cccnc3c2O)CC1 (stereo not drawn) | 1.96 µM |  |
| Oc1c(C(c2ccc(Cl)cc2)N2CCCC2)cc(Cl)c2cccnc12 (stereo not drawn) | 1.47 µM |  |
| O=[N+]([O-])c1ccc(O)c(/C=N/Nc2ccc(Cl)nn2)c1 | 1.6 µM |  |
| O=[N+]([O-])c1cc(CN2CCN(c3ccccc3)CC2)c(O)c2ncccc12 | 0.109 µM |  |
| COc1ccc(C)cc1N=Nc1ccc(O)c2ncccc12 | 0.303 µM |  |
| CCN(CC)S(=O)(=O)c1cc(OC)ccc1N=Nc1ccc(O)c2ncccc12 | 0.753 µM |  |
| CCCCC(=O)NC(c1ccco1)c1cc(Cl)c2cccnc2c1O (stereo not drawn) | 0.705 µM |  |
| COc1cccc(N=Nc2ccc(O)c3ncccc23)c1 | 0.279 µM |  |
| C/C(=N\NC(=O)c1cc2ccccc2cc1O)c1ccccn1 | 1.04 µM |  |
| O=c1ccc(N=Nc2ccccc2)ccc1O | 1.6 µM |  |
| COc1cccc(/C=N/Nc2ncnc3scc(-c4ccccc4)c23)c1O | 2.07 µM |  |
| O=C(N/N=C/c1cc2c3c(c1O)CCCN3CCC2)c1ccccc1O | 6.37 µM |  |
| Oc1ccc(N=Nc2ccc3c(c2)OCCO3)c2cccnc12 | 3.14 µM |  |
| Oc1c(CN2CCN(c3ccccc3)CC2)cc(Br)c2cccnc12 | 1.39 µM |  |
| Cc1cc(NC(c2ccc(Cl)cc2)c2ccc3cccnc3c2O)no1 (stereo not drawn) | 3.66 µM |  |
| O=C(N/N=C/c1c(O)ccc2ccccc12)c1cccc(C(F)(F)F)c1 | 4.34 µM |  |
